Assay results reported in publication PMC8742467, “Therapeutical interference with the epigenetic landscape of germ cell tumors: a comparative drug study and new mechanistical insights” (Clinical Epigenetics, 2022).

Key:
Type in all cases: cell-based, Human
[1] = test system: DNA methylation (5mC, 5hmC) in 2102EP cells; assay: DNA slot blot (5mC, 5hmC); settings: 24 h
GCT cell lines = assay: XTT cell viability assay, GCT cell lines (pre-screen / summary); settings: first pre-screen, XTT; read-out: EC50
Method in brief: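 Seeding density of 5 × 10^3 cells per well applied to both tumour and fibroblast lines; compounds or vehicle followed after overnight attachment. Metabolic activity by XTT, four technical repeats, EC50 calculated.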

[2] = test system: histone modifications in 2102EP cells; assay: Mass spectrometry analysis of histone modifications (Mod Spec)
Method in brief: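 2102EP cells were treated for 16 h with EC50 concentrations of Quisinostat, JIB-04, Chaetocin, MZ-1, LP99, PRT4165 or GSK343, with DMSO as solvent control. After trypsin harvest, histones were extracted and analysed by mass spectrometry. Raw data were converted to z-scores.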

[3] = 2102EP cells, Mod Spec raw data
[4] = 2102EP, EC50, 16 h, vs solvent control

O=C1C(=Cc2cccnc2)C(=O)c2ccccc21 [PRT4165]
5hmC levels increase compared to solvent control [1]: 25% | 5mC levels compared to solvent control ([1]; solvent control set to 100%): 84% | EC50 (GCT cell lines): ≤ 50 µM | H1.4: K25AC, % of peptide pool [2, 3]: 0.05173% | H1.4: K25ME1, % of peptide pool [2, 3]: 2.298% | H1.4: K25ME2, % of peptide pool [2, 3]: 0.1042% | H1.4: K25ME3, % of peptide pool [2, 3]: 0.02395% | H1.4: K25UN, % of peptide pool [2, 3]: 97.522% | H2A1: K13AC, % of peptide pool [2, 3]: 0.008344% | H2A1: K13UN, % of peptide pool [2, 3]: 99.9917% | H2A1: K15AC, % of peptide pool [2, 3]: 0.002728% | H2A1: K15UB, % of peptide pool [2, 3]: 0% | H2A1: K15UN, % of peptide pool [2, 3]: 99.9973% | H2A3: K13AC, % of peptide pool [2, 3]: 0.03698% | H2A3: K13UN, % of peptide pool [2, 3]: 99.963% | H2A3: K15AC, % of peptide pool [2, 3]: 0.08285% | H2A3: K15UB, % of peptide pool [2, 3]: 0% | H2A3: K15UN, % of peptide pool [2, 3]: 99.9171% | H2A: K5AC, % of peptide pool [2, 3]: 15.4182% | H2A: K5UN, % of peptide pool [2, 3]: 84.5818% | H2A: K9AC, % of peptide pool [2, 3]: 1.95% | H2A: K9UN, % of peptide pool [2, 3]: 98.0496% | H2A: K36AC, % of peptide pool [2, 3]: 0.05592% | H2A: K36UN, % of peptide pool [2, 3]: 99.9441% | H3: K9AC, % of peptide pool [2, 3]: 0.7791% | H3: K9ME1, % of peptide pool [2, 3]: 33.7783% | H3: K9ME2, % of peptide pool [2, 3]: 30.8531% | H3: K9ME3, % of peptide pool [2, 3]: 3.071% | H3: K9UN, % of peptide pool [2, 3]: 31.5183% | H3: K14AC, % of peptide pool [2, 3]: 32.0961% | H3: K14UN, % of peptide pool [2, 3]: 67.9039% | H3: K18AC, % of peptide pool [2, 3]: 12.9985% | H3: K18ME1, % of peptide pool [2, 3]: 0.1614% | H3: K18UN, % of peptide pool [2, 3]: 86.8401% | H3: K23AC, % of peptide pool [2, 3]: 19.4498% | H3: K23ME1, % of peptide pool [2, 3]: 0.05975% | H3: K23UN, % of peptide pool [2, 3]: 80.4904% | H3: K56AC, % of peptide pool [2, 3]: 0.4117% | H3: K56ME1, % of peptide pool [2, 3]: 1.0746% | H3: K56UN, % of peptide pool [2, 3]: 98.5137% | H3: K64AC, % of peptide pool [2, 3]: 0.02258% | H3: K64UN, % of peptide pool [2, 3]: 99.9774% | H3: K79AC, % of peptide pool [2, 3]: 3.311% | H3: K79ME1, % of peptide pool [2, 3]: 23.508% | H3: K79ME2, % of peptide pool [2, 3]: 7.992% | H3: K79ME3, % of peptide pool [2, 3]: 11.4561% | H3: K79UN, % of peptide pool [2, 3]: 53.7325% | H3: K122AC, % of peptide pool [2, 3]: 0.1739% | H3: K122UN, % of peptide pool [2, 3]: 99.8261% | H3: Q19ME1, % of peptide pool [2, 3]: 0.01555% | H3: Q19UN, % of peptide pool [2, 3]: 99.9844% | H3: Q55ME1, % of peptide pool [2, 3]: 0.5287% | H3: Q55UN, % of peptide pool [2, 3]: 99.4713% | H3: R42ME2, % of peptide pool [2, 3]: 2.978% | H3: R42UN, % of peptide pool [2, 3]: 97.0223% | H3: R49ME2, % of peptide pool [2, 3]: 9.973% | H3: R49UN, % of peptide pool [2, 3]: 90.0271% | H3R2UN: K4AC, % of peptide pool [2, 3]: 0.1986% | H3R2UN: K4ME1, % of peptide pool [2, 3]: 18.1935% | H3R2UN: K4ME2, % of peptide pool [2, 3]: 0.2356% | H3R2UN: K4ME3, % of peptide pool [2, 3]: 0.09008% | H3R2UN: K4UN, % of peptide pool [2, 3]: 81.2822% | H3R2UN: Q5ME1, % of peptide pool [2, 3]: 0.1103% | H3R2UN: Q5UN, % of peptide pool [2, 3]: 99.8897% | H3.1: K27AC, % of peptide pool [2, 3]: 2.4319% | H3.1: K27ME1, % of peptide pool [2, 3]: 48.1679% | H3.1: K27ME2, % of peptide pool [2, 3]: 21.916% | H3.1: K27ME3, % of peptide pool [2, 3]: 3.429% | H3.1: K27UN, % of peptide pool [2, 3]: 24.0551% | H3.1: K36AC, % of peptide pool [2, 3]: 0.4356% | H3.1: K36ME1, % of peptide pool [2, 3]: 14.9062% | H3.1: K36ME2, % of peptide pool [2, 3]: 45.0841% | H3.1: K36ME3, % of peptide pool [2, 3]: 22.3724% | H3.1: K36UN, % of peptide pool [2, 3]: 17.2016% | H3.3: K27AC, % of peptide pool [2, 3]: 6.482% | H3.3: K27M, % of peptide pool [2, 3]: 0% | H3.3: K27ME1, % of peptide pool [2, 3]: 46.8114% | H3.3: K27ME2, % of peptide pool [2, 3]: 16.0905% | H3.3: K27ME3, % of peptide pool [2, 3]: 6.139% | H3.3: K27UN, % of peptide pool [2, 3]: 24.4778% | H3.3: K36AC, % of peptide pool [2, 3]: 3.39% | H3.3: K36ME1, % of peptide pool [2, 3]: 13.3786% | H3.3: K36ME2, % of peptide pool [2, 3]: 45.5834% | H3.3: K36ME3, % of peptide pool [2, 3]: 23.7392% | H3.3: K36UN, % of peptide pool [2, 3]: 13.9089% | H4: K5AC, % of peptide pool [2, 3]: 8.039% | H4: K5UN, % of peptide pool [2, 3]: 91.9614% | H4: K8AC, % of peptide pool [2, 3]: 12.3075% | H4: K8UN, % of peptide pool [2, 3]: 87.6925% | H4: K12AC, % of peptide pool ([2]; 2102EP cells, Mod Spec raw data, histone H4 K12 acetylated): 6.955 % of peptide pool | H4: K12UN, % of peptide pool ([2]; 2102EP cells, Mod Spec raw data, histone H4 K12 unmodified): 93.045 % of peptide pool | H4: K16AC, % of peptide pool ([2]; 2102EP cells, Mod Spec raw data, histone H4 K16 acetylated): 45.5782 % of peptide pool | H4: K16UN, % of peptide pool ([2]; 2102EP cells, Mod Spec raw data, histone H4 K16 unmodified): 54.4218 % of peptide pool | H4: K20AC, % of peptide pool ([2]; 2102EP cells, Mod Spec raw data, histone H4 K20 acetylated): 32.1833 % of peptide pool | H4: K20ME2, % of peptide pool ([2]; 2102EP cells, Mod Spec raw data, histone H4 K20 dimethylated): 44.5336 % of peptide pool | H4: K20ME1, % of peptide pool ([2]; 2102EP cells, Mod Spec raw data, histone H4 K20 monomethylated): 4.33 % of peptide pool | H4: K20ME3, % of peptide pool ([2]; 2102EP cells, Mod Spec raw data, histone H4 K20 trimethylated): 2.102 % of peptide pool | H4: K20UN, % of peptide pool ([2]; 2102EP cells, Mod Spec raw data, histone H4 K20 unmodified): 16.8517 % of peptide pool | change of histone modifications of the expected mode of action (Mod Spec) [2, 4]: decreased ubiquitination (ub) of the target histone H2AK119 [50] could not be detected | off-target changes of histone modifications (Mod Spec) [2, 4]: increase of H3K36me3, H4K20ac, H3K79me1/ac
